This is an account of results in patent publication US6635250B2, “Use of certain metalloproteinase inhibitors for treating nerve disorders mediated by nucleus pulpsus” (A+ Science AB (publ), priority 1998, dated 2003).

Assay [1] relates to inducible nitrogen oxide synthetase. The note with it: cited from earlier work.
In assay [2] the test system is nerve roots. Conditions: cited from earlier work.
Assay [3] relates to sacrococcygeal cauda equina. In words: Series-3: nerve root conduction velocity seven days after autologous nucleus pulposus application. It counts as in vivo. The note with it: pig, systemic treatment. On the procedure: Series-3: Thirteen pigs had autologous nucleus pulposus placed onto their sacrococcygeal cauda equina similar to series-2. Five pigs (bodyweight 25 kg) received REMICADE® (infliximab) 100 mg i.v. preoperatively, and 8 pigs received ENBREL® (etanercept) 12.5 mg s.c. preoperatively and additionally 12.5 mg s.c. three days after the operation. Seven days after the nucleus pulposus-application the nerve root conduction velocity was determined over the application zone by local electrical stimulation according to series-2. Series-3: Thirteen pigs had autologous nucleus pulposus placed onto their sacrococcygeal cauda equina similar to series-2. […] Seven days after the nucleus pulposus-application the nerve root conduction velocity was determined over the application zone by local electrical stimulation according to series-2. […] The statistical difference between the groups, infliximab, and etanercept, nucleus pulposus without treatment (positive control from previous data) and application of retroperitoneal fat (negative control from previous data) was assessed by using ANOVA and Fisher's PLSD at 5%.

Take `N=C(N)NN` [Aminoguanidine]: the “inhibition of release of nitrogen oxide (NO) at nerve root injuries” value in assay [1] is recorded as “inhibit the release of nitrogen oxide (NO)”. For the compound `COc1ccc2c(c1)c(CC(=O)O)c(C)n2C(=O)c1ccc(Cl)cc1` [indomethacin], the “block of nucleus pulposus-related effects” value in assay [2] is on record as “slightly less efficiently”. Consider `CCN(CC)CC(=O)Nc1c(C)cccc1C` [lidocaine], for which the “block of nucleus pulposus-related effects” value in assay [2] is on record as “slightly less efficiently”. In the case of etanercept [EMBREL ®], the “block of nucleus pulposus induced nerve injury (nerve conduction velocity)” value in assay [3] is on record as “blocked the nucleus pulposus induced nerve injury efficiently”. With infliximab [REMICADE ®], the “block of nucleus pulposus induced nerve injury (nerve conduction velocity)” value in assay [3] is reported as “blocked the nucleus pulposus induced nerve injury efficiently”.
